Measured values: ChEMBL document CHEMBL4118279, “1,3-Di(quinolin-2-yl)guanidine binds to GGCCCC hexanucleotide repeat DNA in C9ORF72” (Bioorg Med Chem Lett, 2018)
One block for each compound: values may come before it. Activity calls are given as the source filed them. The rule behind the calls is not given here.

How the values were obtained:
[1] = Binding affinity to GGCCCC/GGCCCC motif-containing duplex DNA (unknown origin) assessed as change in melting temperature at 20 uM by UV-spectrophotometric method
[2] = Binding affinity to GGTCCC/GGCTCC motif-containing duplex DNA (unknown origin) assessed as change in melting temperature at 20 uM by UV-spectrophotometric method
[3] = Binding affinity to GGCTCC/GGCCCC motif-containing duplex DNA (unknown origin) assessed as change in melting temperature at 20 uM by UV-spectrophotometric method
[4] = Binding affinity to GGTCCC/GGCCCC motif-containing duplex DNA (unknown origin) assessed as formation of CD bands at 20 uM at 300 to 345 nm by CD spectrometry
[5] = Binding affinity to GGCCCC/GGGGCC motif-containing duplex DNA (unknown origin) at 40 uM by ESI-TOF-MS analysis
[6] = Binding affinity to (GGCCCC)9 motif-containing duplex DNA (unknown origin) assessed as melting temperature at 20 uM by UV-spectrophotometric method
[7] = Binding affinity to GGTTCC/GGTTCC motif-containing duplex DNA (unknown origin) assessed as change in melting temperature at 20 uM by UV-spectrophotometric method
[8] = Binding affinity to GGTCCC/GGCCCC motif-containing duplex DNA (unknown origin) assessed as change in melting temperature at 20 uM by UV-spectrophotometric method
[9] = Binding affinity to (GGCCCC)9 motif-containing duplex DNA (unknown origin) assessed as formation of CD bands at 20 uM at 245 to 282 nm by CD spectrometry
[10] = Binding affinity to GGCTCC/GGCTCC motif-containing duplex DNA (unknown origin) assessed as change in melting temperature at 20 uM by UV-spectrophotometric method
[11] = Binding affinity to (GGCCCC)5 motif-containing duplex DNA (unknown origin) at 80 uM by ESI-TOF-MS analysis
[12] = Binding affinity to GGCCC/GGCCC motif-containing duplex DNA (unknown origin) assessed as change in melting temperature at 20 uM by UV-spectrophotometric method
[13] = Binding affinity to GGAACC/GGAACC motif-containing duplex DNA (unknown origin) assessed as change in melting temperature at 20 uM by UV-spectrophotometric method
[14] = Binding affinity to GGTTCC/GGCCCC motif-containing duplex DNA (unknown origin) assessed as change in melting temperature at 20 uM by UV-spectrophotometric method
[15] = Binding affinity to GGGGCC/GGGGCC motif-containing duplex DNA (unknown origin) assessed as change in melting temperature at 20 uM by UV-spectrophotometric method
[16] = Binding affinity to GGTCCC/GGTCCC motif-containing duplex DNA (unknown origin) assessed as formation of CD bands at 20 uM at 310 to 345 nm by CD spectrometry
[17] = Binding affinity to GGCCCC/GGCCCC motif-containing duplex DNA (unknown origin) assessed as formation of CD bands at 20 uM at 310 to 345 nm by CD spectrometry
[18] = Binding affinity to GGCCCC/GGCCCC motif-containing duplex DNA (unknown origin) at 40 uM by ESI-TOF-MS analysis
[19] = Binding affinity to GGCTCC/GGCCCC motif-containing duplex DNA (unknown origin) assessed as formation of CD bands at 20 uM at 310 to 345 nm by CD spectrometry
[20] = Binding affinity to GGCCCC/GGCCCC motif-containing duplex DNA (unknown origin) at 80 uM by ESI-TOF-MS analysis
[21] = Binding affinity to GGCCCC/GGGGCC motif-containing duplex DNA (unknown origin) assessed as change in melting temperature at 20 uM by UV-spectrophotometric method
[22] = Binding affinity to GGTCCC/GGTCCC motif-containing duplex DNA (unknown origin) assessed as change in melting temperature at 20 uM by UV-spectrophotometric method

ΔTm [1]: 19.6 °C
ΔTm [2]: 8.9 °C
ΔTm [3]: 11.2 °C
Activity [4]: Active
Activity [5]: inactive
Tm [6]: 67.8 °C
ΔTm [7]: -0.1 °C
ΔTm [8]: 14.4 °C
Activity [9]: Active
ΔTm [10]: 8.3 °C
Activity [11]: Active
ΔTm [12]: 7.8 °C
ΔTm [13]: 2.1 °C
ΔTm [14]: 8.6 °C
ΔTm [15]: 0.7 °C
Activity [16]: inactive
Activity [17]: Active
Activity [18]: Active
Activity [19]: inactive
Activity [20]: Active
ΔTm [21]: -1 °C
ΔTm [22]: 11.5 °C
Structure (SMILES): N=C(Nc1ccc2ccccc2n1)Nc1ccc2ccccc2n1

ΔTm [1]: 3.4 °C
ΔTm [7]: -1.3 °C
ΔTm [13]: -0.5 °C
ΔTm [15]: -0.7 °C
Activity [17]: Active
ΔTm [21]: -2.8 °C
Structure (SMILES): N=C(N)Nc1ccc2ccccc2n1
